Test results taken from article PMC9926234, “Iterative computational design and crystallographic screening identifies potent inhibitors targeting the Nsp3 macrodomain of SARS-CoV-2” (Proceedings of the National Academy of Sciences of the …, 2023).
Values joined by “and” are separate entries in the source; they are usually repeats but may differ in a detail not shown here. Equal values may be shown once. Read-outs that look alike come from different tables or passages of the source.

Legend:
Type in all cases: binding
[1] = target: T1, SARS-CoV-2 NSP3 Mac1 (Severe acute respiratory syndrome coronavirus 2, UniProt P0DTD1); experiment: biochemical; settings: for Ki: read-out: Ki***; for IC50: read-out: IC50
[2] = target: T1, SARS-CoV-2 NSP3 Mac1; settings: for Refined occupancy: ligand occupancy after refinement (phenix.refine); for binding to Mac1 in crystal soaking, result in words: soaks at 10 to 20 mM
[3] = target: T1, SARS-CoV-2 NSP3 Mac1; design: contains a conserved macrodomain enzyme (Mac1); settings: for Spearman est (compound concentration vs apparent Tm): DSF dose responsiveness, 1 µM nsp3 mac1, adj p given
Summary of the method: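 Differential scanning fluorimetry using 5 µM Fluorescent Yellow dye in place of SYPRO Orange. Compounds run in triplicate at seven two-fold dilutions from 1,000 or 100 μM, with ΔTma taken against a DMSO control in the same plate region. Dose-response significance assessed by Spearman's coefficient between concentration and ΔTma.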

[4] = Ki estimation from HTRF-derived IC50, Cheng-Prusoff, peptide 400nM, Kd 2.68µM
[5] = PanDDA 1-BDC value of the event, crystal soak, compound concentration 100 mM, per dataset
[6] = PanDDA event map, 1 minus background density correction, crystal soaking of Mac1
[7] = crystal soak, compound concentration 100 mM, per dataset
[8] = ligand modeled in the crystal structure, crystal soak, compound concentration 100 mM, per dataset
[9] = true hit = binding in crystallographic soaking or the HTRF-based binding assay
[10] = ligand modeled from this dataset, compound concentration 100 mM, Echo dispense volume 40 or 80 nl
[11] = PanDDA event map, 1-BDC of the hit dataset, crystal soak, compound concentration 100 mM
[12] = ligand modeled from this dataset, compound concentration 100 mM
[13] = HTRF ADPr-peptide displacement from SARS-CoV-2 Mac1
[14] = HTRF, several values in a cell are separate determinations
[15] = PanDDA 1-BDC (background density correction) of the event, crystal soak 100 mM, PanDDA run dmso_34
[16] = crystal soak, compound concentration 100 mM, PanDDA run dmso_34, series docking_lead-like_1
[17] = ligand modeled in the crystal structure, crystal soak 100 mM, PanDDA run dmso_34
[18] = overall hit flag: binding in crystallographic soaking or the HTRF-based binding assay
[19] = maximal thermal upshift vs DMSO control
[20] = PanDDA event map 1-BDC, crystal soak, Compound_concentration 100 mM, PanDDA run dmso_34 or nohits_35 per dataset
[21] = crystal soak, Compound_concentration 100 mM, Echo dispense 40 nl, PanDDA run dmso_34 or nohits_35 per dataset
[22] = ligand modeled in this dataset, crystal soak, Compound_concentration 100 mM

SMILES	Ki [1, 4] [µM]	1-BDC [2, 6]	Refined occupancy ([2]; crystal soaking of Mac1)	HIT* [2, 9]	Spearman est (compound concentration vs apparent Tm) [3]	DSF max dTma ([3]; maximal thermal upshift)	IC50 ([1]; HTRF) [µM]	IC50 [1, 13]	other results
O=C(NC1c2cccc(O)c2CC1C(=O)O)c1cnc2c(c1)CCCN2 (stereo not drawn) [8539_0006]	146	0.1	20	Y	−0.43	0 ˚C			1-BDC [2, 5]: 0.1; PanDDA hit? [2, 7]: TRUE; Modeled? [2, 8]: TRUE
O=C(NC1c2cccc(O)c2CC1C(=O)O)c1cnc(NC2CCOCC2)cn1 (stereo not drawn) [8539_0007]	5.6	0.19	60	Y	0.24	3.42 ˚C			1-BDC [2, 5]: 0.2; PanDDA hit? [2, 7]: TRUE; Modeled? [2, 10]: TRUE
O=C(NC1c2cccc(O)c2CC1C(=O)O)c1ccc(NCC2CC2)nc1 (stereo not drawn) [8539_0009]	14.9	0.24	70	Y	0.34	2.03 ˚C			1-BDC [2, 5]: 0.18; PanDDA hit? [2, 7]: TRUE; Modeled? [2, 10]: TRUE
O=C1COc2cc(C(=O)NC3c4cccc(O)c4CC3C(=O)O)ccc2N1 (stereo not drawn) [8539_0014]	24.3	0.29	58	Y	0.59	1.83 ˚C			1-BDC [2, 5]: 0.29; PanDDA hit? [2, 7]: TRUE; Modeled? [2, 10]: TRUE
O=C(Nc1ccc(C(=O)NC2c3ccccc3CC2C(=O)O)cc1)NC1CC1 (stereo not drawn) [8539_0029]	4.2	0.11	22	Y	0.73	3.66 ˚C			1-BDC [2, 5]: 0.13; PanDDA hit? [2, 7]: TRUE; Modeled? [2, 10]: TRUE
O=C(Nc1ccc(C(=O)N[C@H]2c3ccccc3CC[C@H]2C(=O)O)cc1)NC1CC1 [8539_0030]	5.1	0.32	64	Y	0.86	4.92 ˚C			1-BDC [2, 5]: 0.32; PanDDA hit? [2, 7]: TRUE; Modeled? [2, 8]: TRUE
O=C(O)CC1CN(c2ncnc3[nH]ccc23)CC2(CCC2)O1 (stereo not drawn) [F6831]	38.5			Y	0.94	2.21 ˚C	44.2		binding to Mac1 in crystal soaking, result in words [2]: not confirmed by X-ray crystallography
O=C(CSc1nnn[nH]1)c1c[nH]c2ncc(Br)cc12 [R1104]	48.1	0.27	54	Y	0.54	1.16 ˚C	55.3		1-BDC [2, 11]: 0.3
Cc1c[nH]c2ncc(C(=O)N(C)c3nnn[nH]3)cc12 [R7335]	36.7		40	Y	0.73	1.16 ˚C	42.2		1-BDC [2, 11]: 0.26; 1-BDC (PanDDA) [2, 6]: 0.2; Modeled? [2, 12]: TRUE
CCc1c[nH]c2ncnc(N3CCCC(S(C)(=O)=O)C3)c12 (stereo not drawn) [Z1027]	110	0.17	34		0.96			126 µM	IC50 [1, 14]: 126 µM; 1-BDC [2, 15]: 0.17; PanDDA hit? [2, 16]: TRUE; Modeled? [2, 17]: TRUE; HIT* [2, 18]: Y; DSF max dTma [3, 19]: 1.03 °C
Cc1[nH]c2ncnc(N3CCOC(CC(F)(F)F)C3)c2c1C (stereo not drawn) [Z2051]	119				0.51			137 µM	IC50 [1, 14]: 137 µM; HIT* [2, 18]: Y; binding to Mac1 in crystal soaking, result in words [2]: not confirmed by X-ray crystallography; DSF max dTma [3, 19]: 0.51 °C
CC1(C)CN(c2ncnc3[nH]c4ccccc4c23)CC(CC(=O)O)O1 (stereo not drawn) [Z2215]	101			Y			116		
CCc1c[nH]c2ncnc(N3CCC[C@H](C(N)=O)C3)c12 [Z3271]	177				0.97			204 µM	IC50 [1, 14]: 204 µM; HIT* [2, 18]: Y; binding to Mac1 in crystal soaking, result in words [2]: not confirmed by X-ray crystallography; DSF max dTma [3, 19]: 1.77 °C
O=S1(=O)CCC2(CCCN(c3ncnc4[nH]ccc34)C2)C1 (stereo not drawn) [Z4305]	148	0.38	76		0.77			170 µM	IC50 [1, 14]: 170 µM; 1-BDC [2, 15]: 0.38; PanDDA hit? [2, 16]: TRUE; Modeled? [2, 17]: TRUE; HIT* [2, 18]: Y; DSF max dTma [3, 19]: 1.26 °C
O=C(O)C(F)(F)F.O=C(O)C1CN(c2ncnc3[nH]c4ccccc4c23)CC12CCC2 (stereo not drawn) [Z4706]	13.4			Y			15.4		
CCc1c[nH]c2ncnc(N3CCCC(Cc4nc(C)no4)C3)c12 (stereo not drawn) [Z5531]	129	0.2	40		0.68			148 µM	IC50 [1, 14]: 148 µM; 1-BDC [2, 15]: 0.2; PanDDA hit? [2, 16]: TRUE; Modeled? [2, 17]: TRUE; HIT* [2, 18]: Y; DSF max dTma [3, 19]: 0.6 °C
CC(O)CNc1cc(N2CC3(CCC3)C(F)(C(=O)O)C2)ncn1 (stereo not drawn) [Z5722]	404	0.18	36		0.59			464 µM and 460 µM	1-BDC ([2]; PanDDA event map background density correction, crystal soak, Compound_concentration 100 mM, PanDDA run dmso_34): 0.18; PanDDA hit? ([2]; crystal soak, Compound_concentration 100 mM, Echo dispense 40 nl, PanDDA run dmso_34): TRUE; Modeled? ([2]; ligand modeled in crystal structure, crystal soak, Compound_concentration 100 mM, PanDDA run dmso_34): TRUE; HIT* [2, 18]: Y; DSF max dTma [3, 19]: 0.96 °C
O=C(O)CC1CCN(c2ncnc3[nH]c4ccccc4c23)CCC1(F)F (stereo not drawn) [Z6423]	124			Y			143		
Nc1ccc(C(=O)OC2c3ccccc3CC2C(=O)O)c(O)c1 (stereo not drawn) [Z8507]			74					144 µM	Ki [1]: 125 µM; 1-BDC ([2]; PanDDA event map background density correction, crystal soak, compound concentration 100 mM): 0.37; 1-BDC (PanDDA) [2, 6]: 0.37; Modeled? ([2]; ligand modeled in the crystal structure, crystal soak, compound concentration 100 mM): TRUE; HIT* ([2]; overall hit call: binding in crystallographic soaking or the HTRF-based binding assay): Y
O=C(Nc1ccc(C(=O)NC2c3cccc(O)c3CC2C(=O)O)cn1)NC1CC1 (stereo not drawn) [Z8539_0054]	13.9			Y			16		
O=C(Nc1ccc(C(=O)NC2c3cccc(O)c3CC2C(=O)O)c(Cl)c1)NC1CC1 (stereo not drawn) [Z8539_0055]	8.7	0.13	26	Y			10	9.6 µM	1-BDC [2, 20]: 0.22; PanDDA hit? [2, 21]: TRUE; Modeled? [2, 12]: TRUE
Nc1cc(NC(=O)NC2CC2)ccc1C(=O)NC1c2cccc(O)c2CC1C(=O)O (stereo not drawn) [Z8539_0059]	0.7		50	Y			0.8	0.9 µM	1-BDC [2, 20]: 0.25; 1-BDC (PanDDA) [2, 6]: 0.25; PanDDA hit? [2, 21]: TRUE; Modeled? [2, 22]: TRUE
O=C(Nc1ccc(C(=O)NC2c3cccc(O)c3CC2C(=O)O)c2scnc12)NC1CC1 (stereo not drawn) [Z8539_0065]	4.2		18	Y			4.8	3.3 µM	1-BDC [2, 20]: 0.09; 1-BDC (PanDDA) [2, 6]: 0.09; PanDDA hit? [2, 21]: TRUE; Modeled? [2, 22]: TRUE
CNC(=O)Nc1ccc(C(=O)NC2c3cccc(O)c3CC2C(=O)O)cc1 (stereo not drawn) [Z8539_0077]	0.9	0.2	40	Y			1		binding to Mac1 in the HTRF assay, result in words [1]: did not substantially change binding affinity; 1-BDC [2, 20]: 0.25; PanDDA hit? [2, 21]: TRUE; Modeled? [2, 12]: TRUE
O=C(O)CC1CN(c2ncnc3[nH]c4ccccc4c23)CCO1 (stereo not drawn) [Z9596]	32.3			Y			37.1		
